# Reference: patent US11029303B2, “PAH antibodies and uses thereof” (The Administrators of the Tulane Educational Fund, priority 2015, dated 2021)
# Key:
# [1] = molecular target: T1, human aryl hydrocarbon receptor (AhR) (Homo sapiens, UniProt P35869); experiment: Yeast bioassay of human AhR activation (YCM3 yeast, LacZ reporter); type: cell-based; conditions: for EC50: concentration inducing 50% of the activity of 100 μM phenanthrene, 18 hr, read-out: rEC50
# T1 construct: host or cells: Saccharomyces cerevisiae strain YCM3 (derived from W303a), AhR and ARNT integrated on chromosome III under a galactose promoter
# Text: Cell culture. An engineered Saccharomyces cerevisiae yeast strain, YCM3, was used for the present study. YCM3 was derived from the W303a yeast strain and is made available to investigators through the American Type Culture Collection (ATCC, strain MYA-3637). Human Ah receptor and ARNT genes were inserted onto chromosome III under the control of galactose promoter. YCM3 was transformed with a LacZ reporter plasmid that is expressed upon interaction with ligand activated AHRC (FIG. 24). This modification process was described in a previous study (Fox et al., 2008). The yeast cells were maintained in a glucose-containing medium (0.67% yeast nitrogen base without amino acids, 2% glucose, supplemented with 0.01% uracil, adenine, leucine, and histidine), and the bioassay was performed in a galactose-containing medium (2% galactose substituted for glucose in the medium described herein). Medium components were purchased from Sigma Aldrich Chemical Company.
# (§1) Yeast bioassay. The YCM3 yeast cells were diluted into the galactose medium to a final A600 nm of 0.04, plated into 96-well plates at 200 μl/well, and treated with various concentrations of PAHs for 18 hr at 30° C. During this time, the human AhR and aryl hydrocarbon receptor nuclear translocator (ARNT) were expressed in the presence of galactose and activated by PAH ligands in the cell to form the aryl hydrocarbon receptor complex (AHRC). After 18 hrs of incubation, yeast cells were suspended by pipetting, a 25 μl aliquot from each well was transferred into another 96-well assay plate and mixed with 225 μl substrate solution (60 mM Na2HPO4, 40 mM NaH2PO4, 1 mM MgCl2, 10 mM KCl, 0.2% sarkosyl, 1 mM dithiothreitol, and 0.4 mg/ml ortho-nitrophenyl-β-galactoside; pH, 7.0). The assay plate was incubated for ˜5 min at 37° C. and then 100 μl of a 1M Na2CO3 solution was added to stop the reaction and enhance the yellow color. Cell densities were determined from the first 96-well plate by measuring A600 nm and the color intensities of LacZ reactions determined by A405 nm from the corresponding wells of the second plate.
# A450 sample is the measurement of a ligand-treated well at 405 nm absorbance and A450 empty is the measurement of a well that contains only medium and no cells. A600 sample is the measurement of yeast cell density of a ligand-treated well at 600 nm absorbance and A600 empty is the measurement of a well that contains only medium and no cells. Cell volume is the amount of cell suspension added per well in ml (for example 0.025 ml) and reaction time is the time period of the colorimetric reaction (for example 5 min). The lacZ units were calculated as a percentage relative to the positive control (β-naphthaflavone signal set as 100%), and the dose response curves were fitted using SlideWrite program (version 7.01, Advanced Graphics Software, Inc.) using the 2 parameter curve: y=m+a0*x/(a1+x) (2) where m=LacZDMSO value from the assay plate, a0=maximum effect and a1=half maximum effective concentrations (EC50).
# Relative EC50 and EC25 (rEC50 and rEC25) values were further introduced to compare potencies of various methylated phenanthrenes. rEC50 and rEC25 were defined as the concentrations of the total PAH at which the AhR was activated to 50% or 25% of the activation observed in the 100 μM phenanthrene control, respectively. The 100 μM concentration was chosen because it was the maximum that can be achieved in the assay. The rEC50 and rEC25 and the errors associated with these values were calculated from the fitted curves. Specifically, the LacZ value corresponding to 50% or 25% of this value was calculated according to the following equations: y(EC50)=[lacZ(100 uM Phen)+LacZ(1% DMSO)]/2 (3) y(EC25)=[lacZ(100 uM Phen)+3*LacZ(1% DMSO)]/4 (4)
# These calculated y values and the a0 and a1 values from the curve fits were then used to solve for x in equation (2) above. These x values represent the mean of rEC50 or rEC25 from the fitted curve. […]
# YCM3 yeast cells = experiment: Toxicity to yeast cells in the yeast bioassay (inhibition of cell accumulation); type: cell-based, Saccharomyces cerevisiae; conditions: up to 100 μM
# Experimental: as §1, with “The assay plate was incubated for ˜5 min at 37° C. and then 100 μl of a 1M Na2CO3 solution was added to stop the reaction and enhance the yellow color.” left out
# During the induction process, YCM3 yeast cells were incubated with varying concentrations of phenanthrene and its methylated derivatives and their signaling activities were measured via a colorimetric substrate. […] Differences in cell growth at the end of the 18 hr incubation period were normalized by measuring each culture's absorbance at 600 nm.
# [2] = crystal; cited from earlier work
# marine fish = conditions: larvae of marine fish; cited from earlier work
# T1 sequence (P35869 11-848): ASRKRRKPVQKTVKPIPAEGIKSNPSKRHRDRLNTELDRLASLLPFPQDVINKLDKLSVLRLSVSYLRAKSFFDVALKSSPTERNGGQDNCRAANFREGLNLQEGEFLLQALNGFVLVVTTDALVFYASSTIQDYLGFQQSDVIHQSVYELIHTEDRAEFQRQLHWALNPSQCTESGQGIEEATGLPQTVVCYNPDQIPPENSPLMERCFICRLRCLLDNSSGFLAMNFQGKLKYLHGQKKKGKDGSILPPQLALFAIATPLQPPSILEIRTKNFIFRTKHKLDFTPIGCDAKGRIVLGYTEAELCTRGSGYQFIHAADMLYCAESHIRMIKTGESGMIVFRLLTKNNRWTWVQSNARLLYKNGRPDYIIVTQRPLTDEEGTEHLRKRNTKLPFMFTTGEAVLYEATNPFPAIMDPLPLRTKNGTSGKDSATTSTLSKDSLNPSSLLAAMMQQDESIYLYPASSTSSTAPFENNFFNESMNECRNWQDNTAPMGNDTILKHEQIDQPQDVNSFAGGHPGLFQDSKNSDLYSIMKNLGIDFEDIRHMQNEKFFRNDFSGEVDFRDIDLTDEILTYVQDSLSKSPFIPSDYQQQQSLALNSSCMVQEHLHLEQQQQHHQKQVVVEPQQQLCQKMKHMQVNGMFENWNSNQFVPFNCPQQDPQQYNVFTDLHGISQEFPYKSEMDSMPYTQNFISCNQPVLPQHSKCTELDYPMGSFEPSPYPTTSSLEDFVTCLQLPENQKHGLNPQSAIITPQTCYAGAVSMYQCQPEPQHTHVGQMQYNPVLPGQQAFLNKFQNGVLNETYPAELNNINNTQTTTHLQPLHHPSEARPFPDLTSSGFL
# T1 sequence (P27540 whole entry partner): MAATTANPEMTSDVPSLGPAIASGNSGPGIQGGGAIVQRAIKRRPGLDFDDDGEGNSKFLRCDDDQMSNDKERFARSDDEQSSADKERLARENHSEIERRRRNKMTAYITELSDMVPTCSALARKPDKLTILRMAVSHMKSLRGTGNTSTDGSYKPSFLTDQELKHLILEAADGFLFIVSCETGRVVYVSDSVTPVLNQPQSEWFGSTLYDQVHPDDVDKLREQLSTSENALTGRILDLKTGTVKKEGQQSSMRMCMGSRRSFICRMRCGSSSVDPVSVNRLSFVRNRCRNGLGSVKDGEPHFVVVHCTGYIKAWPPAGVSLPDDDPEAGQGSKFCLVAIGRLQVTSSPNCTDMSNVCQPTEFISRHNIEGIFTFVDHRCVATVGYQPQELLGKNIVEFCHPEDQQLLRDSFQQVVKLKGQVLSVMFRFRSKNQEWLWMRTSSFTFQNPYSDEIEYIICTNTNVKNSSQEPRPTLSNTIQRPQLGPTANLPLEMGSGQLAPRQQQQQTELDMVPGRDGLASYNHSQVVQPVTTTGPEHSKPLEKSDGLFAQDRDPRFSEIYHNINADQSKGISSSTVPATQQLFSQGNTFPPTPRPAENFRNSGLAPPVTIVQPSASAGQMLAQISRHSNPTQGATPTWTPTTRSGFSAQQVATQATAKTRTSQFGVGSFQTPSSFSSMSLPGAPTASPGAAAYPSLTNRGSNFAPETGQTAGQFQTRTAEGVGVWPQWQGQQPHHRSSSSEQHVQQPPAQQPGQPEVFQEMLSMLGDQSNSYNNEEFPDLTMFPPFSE
smiles,measurement,setting,value
"Cc1ccc2ccc3ccc(C)cc3c2c1 [3,6-DMP, 3,6-dimethylphenanthrene]",rEC50 comparison (ANOVA post-test),[1],significantly more potent that 4-MP
same,rEC25 comparison (ANOVA post-test),[1]; 25% of the activity of 100 μM phenanthrene,"significantly more potent than the 3-, 4- and 9-MPs"
same,response achieved in the assay,[1]; dose-response curve up to 100 μM,up to 50%
"Cc1cccc2c1ccc1ccccc12 [Clone 1-MP, 1-methylphenanthrene]",concentration at which maximal response was reached,[1],~40 µM
same,EC50,[1],4 µM
same,Emax at 18 h,"[1]; human, 1 μM BNF set as 100%, read-out: maximal response",109%
"Cc1ccc2c(ccc3ccccc32)c1 [Clone 2-MP, 2-methylphenanthrene]",EC50,[1],4.6 µM
"Cc1ccc2ccc3ccccc3c2c1 [Clone 3-MP, 3-methylphenanthrene]",EC50,[1],5.8 µM
"Cc1cc2ccccc2c2ccccc12 [Clone 9-MP, 9-methylphenanthrene]",toxicity to the yeast cells,YCM3 yeast cells,less toxic to the yeast cells
c1ccc2c(c1)ccc1ccccc12 [phenanthrene],toxicity to the yeast cells,YCM3 yeast cells,less toxic to the yeast cells
same,solubility lower than biphenyl,[2],1000 fold
"Cc1cccc2c1ccc1cc(C(C)C)ccc12 [retene, 7-isopropyl-1-methylphenanthrene]",toxicity in vivo,marine fish,greater toxicity than unsubstituted phenanthrene
